Ten compounds from patent US4910213A, “Antimycotic agents” (Bayer Aktiengesellschaft, priority 1984, dated 1990) can be followed below.

Converted amounts (≈) assume the structure as drawn.

The test system of experiment [1] is Trichophyton mentagr. In words: In vitro antimycotic activity, serial dilution test (MIC). Format: cell-based, Trichophyton mentagrophytes. The following applies: 28° to 37° C., 96 hours. As for the experimental part:
(§1) The in vitro tests were carried out in a serial dilution test using inocula of organisms with an average of 5×10^3 to 10^4 organisms/ml of substrate. The following nutrient medium were used
(§2) (a) for dermatophytes and mold fungi: Sabourand's milieu d'epreuve
(§3) The incubation temperature was 28° to 37° C., and the incubation time was 24 to 96 hours for yeasts and 96 hours for dermatophytes and mold fungi.

Experiment [2] has as its system Torulopsis glabrata. The description is as above. In kind it is cell-based. The following applies: Nakaseomyces glabratus, 28° to 37° C., 24 to 96 hours. On the procedure: (§4) The in vitro tests were carried out in a serial dilution test using inocula of organisms with an average of 5×10^3 to 10^4 organisms/ml of substrate. The following nutrient medium were used (b) for yeasts: meat extract/glucose broth. The incubation temperature was 28° to 37° C., and the incubation time was 24 to 96 hours for yeasts and 96 hours for dermatophytes and mold fungi.

Experiment [3] relates to Aspergillus fumigatus. The experiment is described as above. In kind it is cell-based. The following applies: 28° to 37° C., 96 hours. As for the experimental part: as §1, §2, §3
Experiment [4] deals with Candida albicans. The description is as above. Format: cell-based. The following applies: 28° to 37° C., 24 to 96 hours. On the procedure:
as §4

Experiment [5] concerns Microsporum canis. The experiment is described as above. Format: cell-based. The following applies: 28° to 37° C., 96 hours. As for the experimental part: as §1, §2, §3
The subject of experiment [6] is dermatophytes, mold fungi and yeasts. In words: In vitro antimycotic activity, overall comparison with known compounds. In kind it is cell-based. The following applies: in vitro serial dilution test. As for the experimental part:
The in vitro tests were carried out in a serial dilution test using inocula of organisms with an average of 5×10^3 to 10^4 organisms/ml of substrate. The following nutrient medium were used (a) for dermatophytes and mold fungi: Sabourand's milieu d'epreuve (b) for yeasts: meat extract/glucose broth. The incubation temperature was 28° to 37° C., and the incubation time was 24 to 96 hours for yeasts and 96 hours for dermatophytes and mold fungi.

Experiment [7] has as its system candida cells. The experiment is described as follows: In vivo antimycotic activity (oral) on candidosis of the mouse. The following applies: 10-100 mg/kg; for Action (class of survival on day 6 after infection): 1 hour before and 7 hours after infection; for surviving on day 6 after infection: good or very good actions, untreated controls about 5%. On the set-up: species or system mouse (SPF-CF1) infected with candida. As for the experimental part: Type SPF-CF1 mice were infected intravenously with 1-2×10^6 logarithmically growing candida cells which are suspended in physiological saline solution. The animals are each treated orally with 10-100 mg/kg of body weight of the products 1 hour before and 7 hours after the infection. Untreated animals died on days 3 to 6 after the infection. The survival rate on day 6 after the infection was about 5% for untreated control animals.

As for `OC(Cn1cncn1)(Cn1cncn1)c1cccc(Cl)c1` [(A), reference compound], the minimum inhibitory concentration (MIC) was 32 µg/mL (≈ 105 µM) in experiment [1], > 64 µg/mL in experiment [2] and > 64 µg/mL in experiment [3].
On to `OC(Cn1cncn1)(Cn1cncn1)c1ccc(Cl)cc1` [(B), reference compound], for which the MIC in experiment [1] is 16 µg/mL (≈ 52.5 µM); in experiment [4] it was 2 µg/mL (≈ 6.56 µM); in experiment [2] it was 64 µg/mL (≈ 210 µM); in experiment [3] it was > 64 µg/mL.
In the same order, the values of `OC(Cn1cncn1)(Cn1cncn1)c1ccccc1` [(C), reference compound] are 64 µg/mL (≈ 237 µM), 64 µg/mL (≈ 237 µM), > 64 µg/mL and > 64 µg/mL.
Turning to `OC(Cn1cncn1)(c1ccc(Cl)cc1)C1(n2cncn2)CC1` (stereo not shown) [Example I-1, 1-(4-chlorophenyl)-1-[1-(1,2,4-triazol-1-yl)cyclopropyl]-2-(1,2,4-triazol-1-yl)-1-ethanol], the MIC is 2 µg/mL (≈ 6.05 µM) in experiment [1]; 8 µg/mL (≈ 24.2 µM) in experiment [4]; > 64 µg/mL in experiment [2]; 32 µg/mL (≈ 96.7 µM) in experiment [3]; 32 µg/mL (≈ 96.7 µM) in experiment [5]. Further, the “antimycotic action compared with compounds (A), (B) and (C)” value in experiment [6] was “better antimycotic action than compounds (A), (B) and (C)”. In addition, in experiment [7], the “Action (class of survival on day 6 after infection)” value is on record as “+++++ (very good action = 90% surviving on day 6 after infection)”. The “surviving on day 6 after infection” value in experiment [7] is > 60%.
On to `OC(Cn1cncn1)(c1ccc(F)cc1)C1(n2cncn2)CC1` (stereo not shown) [Example I-2], for which, in experiment [7], the “Action (class of survival on day 6 after infection)” value was “+++++ (very good action = 90% surviving on day 6 after infection)” and the “surviving on day 6 after infection” value was > 60%.
On to `OC(Cn1cncn1)(c1ccc(-c2ccccc2)cc1)C1(n2cncn2)CC1` (stereo not shown) [Example I-3], for which the MIC in experiment [1] is < 1 µg/mL; in experiment [4] it was 2 µg/mL (≈ 5.37 µM); in experiment [2], 8 µg/mL (≈ 21.5 µM); in experiment [3], 8 µg/mL (≈ 21.5 µM); in experiment [5], 4 µg/mL (≈ 10.7 µM). Further, the “antimycotic action compared with compounds (A), (B) and (C)” value in experiment [6] is “better antimycotic action than compounds (A), (B) and (C)”. In experiment [7], the “Action (class of survival on day 6 after infection)” value was “+++ (action = 60% surviving on day 6 after infection)”. The “surviving on day 6 after infection” value in experiment [7] was > 60%.
In the case of `Cc1ccc(C(O)(Cn2cncn2)C2(n3cncn3)CC2)cc1` (stereo not shown) [Example I-5], in experiment [7], the “Action (class of survival on day 6 after infection)” value was “++++ (good action = 80% surviving on day 6 after infection)” and the “surviving on day 6 after infection” value is reported as > 60%.
As for `OC(Cn1cncn1)(c1ccccc1)C1(n2cncn2)CC1` (stereo not shown) [Example I-6], the MIC was 4 µg/mL (≈ 13.5 µM) in experiment [1]; 8 µg/mL (≈ 27 µM) in experiment [4]; > 64 µg/mL in experiment [2]; 32 µg/mL (≈ 108 µM) in experiment [3]; 32 µg/mL (≈ 108 µM) in experiment [5]. The “antimycotic action compared with compounds (A), (B) and (C)” value in experiment [6] is “better antimycotic action than compounds (A), (B) and (C)”. Further, the “Action (class of survival on day 6 after infection)” value in experiment [7] was “+++++ (very good action = 90% surviving on day 6 after infection)”. The “surviving on day 6 after infection” value in experiment [7] is > 60%.
Turning to `OC(Cn1cncn1)(c1ccc(Br)cc1)C1(n2cncn2)CC1` (stereo not shown) [Example I-7], the minimum inhibitory concentration (MIC) was < 1 µg/mL in experiment [1]; 4 µg/mL (≈ 10.7 µM) in experiment [4]; 32 µg/mL (≈ 85.3 µM) in experiment [2]; 64 µg/mL (≈ 171 µM) in experiment [3]; 32 µg/mL (≈ 85.3 µM) in experiment [5]. Moreover, the “antimycotic action compared with compounds (A), (B) and (C)” value in experiment [6] is “better antimycotic action than compounds (A), (B) and (C)”. Also, the “Action (class of survival on day 6 after infection)” value in experiment [7] is recorded as “++++ (good action = 80% surviving on day 6 after infection)”. For the same compound, the “surviving on day 6 after infection” value in experiment [7] was > 60%.
As for `OC(Cn1cncn1)(c1ccc(Cl)cc1)C1(n2ccnc2)CC1` (stereo not shown) [Example I-10], in experiment [7], the “Action (class of survival on day 6 after infection)” value is recorded as “+++ (action = 60% surviving on day 6 after infection)” and the “surviving on day 6 after infection” value is reported as > 60%.

As a reminder, the MIC is the smallest concentration in the dilution series that meets the test's criterion for growth inhibition. A high value points to a need for much substance.
